Assay results: patent US20250179024A1, “AMYLOID AND ASSOCIATED PATHOLOGY MODULATORS AND METHODS THEREOF” (Jawaharlal Nehru Centre for Advanced Scientific Research, priority 2022, published 2025)

Columns and labels:
SH-SY5Y cells = experiment: In cellulo antioxidant assay, rescue from H2O2 induced cell death (MTT); assay type: cell-based; settings: H2O2 200 μM, NMIs 20 μM, 18 h; H2O2 treated cells ~72%
Procedure: To assess in cellulo antioxidant activity of NMIs, rescue of neuronal cells from H2O2 induced cell death was assessed by MTT assay. The cells were seeded onto 96 well plate at seeding density of 25,000 cells per well. After 24 h cells were treated with H2O2 (200 μM) alone and with NMIs (20 μM) for 18 h. H2O2 treatment result in neuronal cell death and potent antioxidant molecule rescue cells. The cell viability was assessed by MTT assay and percentage cell viability was calculated. ABTS (λmax at 734 nm) radical scavenging assay assessed the ability of NMIs to quench nitrogen radicals (RNS). […] These in vitro experiments have established M1 and M3 as effective antioxidants and further their ability to scavenge ROS in cellulo was assessed. Treatment of cells with H2O2 was known to generate ROS and cause DNA damage, protein oxidation, lipid peroxidation and mitochondrial dysfunction, which led to cell death. The neuronal cells were treated with H2O2 (200 μM) alone and with NMIs (20 μM) for 18 h and cell viability by MTT assay. […] The production of excess ROS by Aβ results in oxidative stress and elicits stress response.

[1] = target: T1, preformed Aβ fibrillar aggregates (Homo sapiens, UniProt P05067); experiment: Dot blot assay of dissolution of preformed Aβ fibrillar aggregates; assay type: biochemical; settings: Aβ aggregates 10 μM; for dissolution efficiency: NMIs 20 μM, 48 h
T1 construct: is a 42 amino acid proteolytic product from the amyloid precursor protein; purchased Invitrogen
Procedure: Aggregation modulation by toxic Aβ aggregates were assessed and were quantified by dot blot assay. Aβ peptide (10 μM) was dissolved in phosphate buffered saline (PBS, 10 mM, pH 7.4), incubated alone and with NMIs (20 μM) at 37° C. for 48 h. For concentration dependent inhibition, 10 μM Aβ peptide was incubated with 1, 2, 5, 10 and 20 μM of NMIs and incubated. Samples for oligomer inhibition studies were prepared by incubating Aβ alone and with NMIs at 4° C. for 24 and subjected to dot blot analysis. For dissolution studies, Aβ peptide alone was incubated in PBS for 48 h to prepare fibrils and then incubated with NMIs further for 48 h. For dot blot experiment, 5 μL of sample was blotted on activated PVDF (polyvinylidene fluoride) membrane in triplicates and air dried. The membrane was blocked with skimmed milk powder for 1 h at room temperature. The blot paper was washed with tris-buffered saline with 0.01% Tween 20 (TBST) three times for 5 min. Blot paper was treated with fibril specific OC primary antibody (Rabbit, 1:1000 dilution) overnight at 4° C. For oligomers blot A11 anti-oligomer antibody (Rabbit 1:1000) was used. Blot was washed thrice with TBST and treated with HRP-conjugated antirabbit secondary antibody (1:5000 dilutions) for 1 h at room temperature. The bolt was washed thrice for 5 min with TBST and developed with ECL reagent (Biorad) and imaged with ChemiDoc BioRad gel documentation system in autoexposure mode. Blots were analyzed and quantified by ImageJ software. The fibrillar aggregates were formed by incubating Aβ peptide (10 μM) in PBS (pH 7.4) at 37° C. for 48 h. The aggregate samples were treated with NMIs (20 μM) for 48 h followed by dot blot analysis. […] These studies confirmed that M3 as the potential candidate to dissolve Aβ fibrillar aggregates to possibly nontoxic species.

[2] = target: T2, Aβ in the presence of Cu (II) (Homo sapiens, UniProt P05067); experiment: Cu-dependent Aβ aggregation, native PAGE and western blot; assay type: biochemical; settings: Aβ 10 μM, Cu (II) 20 μM, NMIs 20 μM, 37° C., 48 h
T2 construct: is a 42 amino acid proteolytic product from the amyloid precursor protein; purchased Invitrogen
Procedure: The samples were prepared by incubating Aβ42 with specific concentration of NMI compounds of present disclosure and metal ions for 48 h and then subjected to 6% native polyacrylamide gel electrophoresis (Native-PAGE) in tris-glycine buffer. The lower molecular weight aggregates permeabilized through the gel and resolved in the gel. Higher molecular aggregates stuck in the upper part of wells and potentially carried in gel. Then the protein was transferred to PVDF membrane for 4 h at cold condition maintained using ice cold transfer buffer and immersing the transfer apparatus in ice. Then the blots were continued similar to dot blots.
The absorbance and fluorescence spectroscopy studies together with mass spectrometry data confirmed the selective Cu (II) or Zn (II) chelation property of M1 and M3. […] Aβ (10 μM) was incubated in the presence of Cu (II) or Zn (II) (20 μM) with NMIs at 37° C. for 48 h and the samples were subjected to native PAGE and western blot analysis. […] Modulation of Zn-dependent Aβ aggregation by M4 was attributed to its two Zn (II) chelation centres. M3 with dopamine and DPA moieties effectively modulated both Cu (II) and Zn (II)-dependent Aβ aggregation. The effect of NMIs on the morphological outcome of metal-dependent Aβ aggregation was visualized by AFM imaging (FIGS. 1E and 1F). Aβ in the presence of Cu (II) and Zn (II) formed dense and thick fibrils.

T1 sequence (P05067 672-713 limits assumed): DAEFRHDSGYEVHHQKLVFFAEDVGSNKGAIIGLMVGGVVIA
T2 sequence (P05067 672-713 limits assumed): as above

SMILES | cell viability (SH-SY5Y cells) [%] | dissolution efficiency [1] [%] | formation of Aβ aggregates in the presence of Cu (II) [2] | EC50 [1] [µM] | dissolution ([1]; 0.1 molar ratio) [%] | dissolution ([1]; 0.2 molar ratio) [%] | dissolution ([1]; 0.5 molar ratio) [%] | dissolution ([1]; 1 molar ratio) [%] | dissolution ([1]; 2 molar ratio) [%]
CN(C)c1ccc2c3c(cccc13)C(=O)N(CCc1ccc(O)c(O)c1)C2=O [M1, 2-(3,4-dihydroxyphenethyl)-6-(dimethylamino)-1H-benzo[de]isoquinoline-1,3(2H)-dione] | 89 | ~44 | reduced the formation of aggregates | – | – | – | – | – | –
O=C1c2cccc3c(N(Cc4ccccn4)Cc4ccccn4)ccc(c23)C(=O)N1CCc1ccc(O)c(O)c1 [M3, 6-(bis(pyridin-2-ylmethyl)amino)-2-(3,4-dihydroxyphenethyl)-1H-benzo[de]isoquinoline-1,3(2H)-dione] | 91 | 52 | reduced the formation of aggregates | 7.87 | 25 | 46 | 48 | 50 | 59
